Source: US20220111013A1, “COMPOUND DECREASING THE CONCENTRATION OF 2-HYDROXY-GLUTARATE” (Universität Heidelberg, priority 2019, published 2022)
“Also recorded” adds a separate entry of the source. Positions of bridges follow the written chain, without caps; N, C: chain ends. No end group written: not given here.

Experiments:
Tet2 = target: T1, Tet2 (Rattus norvegicus, UniProt A0ABK0LWH5); assay: Assessment of hydroxymethylation status of cytosine (5mC-Hydroxylase TET activity kit) after 2-HG treatment; assay type: cell-based; conditions: nuclear extracts of NRVCMs after 2-HG treatment
T1 construct: nuclear extracts isolated from NRVCMs; endogenous in cells; host or cells: primary neonatal rat ventricular cardiomyocytes (NRVCMs), nuclear extract
T1 sequence (A0ABK0LWH5 1-1959): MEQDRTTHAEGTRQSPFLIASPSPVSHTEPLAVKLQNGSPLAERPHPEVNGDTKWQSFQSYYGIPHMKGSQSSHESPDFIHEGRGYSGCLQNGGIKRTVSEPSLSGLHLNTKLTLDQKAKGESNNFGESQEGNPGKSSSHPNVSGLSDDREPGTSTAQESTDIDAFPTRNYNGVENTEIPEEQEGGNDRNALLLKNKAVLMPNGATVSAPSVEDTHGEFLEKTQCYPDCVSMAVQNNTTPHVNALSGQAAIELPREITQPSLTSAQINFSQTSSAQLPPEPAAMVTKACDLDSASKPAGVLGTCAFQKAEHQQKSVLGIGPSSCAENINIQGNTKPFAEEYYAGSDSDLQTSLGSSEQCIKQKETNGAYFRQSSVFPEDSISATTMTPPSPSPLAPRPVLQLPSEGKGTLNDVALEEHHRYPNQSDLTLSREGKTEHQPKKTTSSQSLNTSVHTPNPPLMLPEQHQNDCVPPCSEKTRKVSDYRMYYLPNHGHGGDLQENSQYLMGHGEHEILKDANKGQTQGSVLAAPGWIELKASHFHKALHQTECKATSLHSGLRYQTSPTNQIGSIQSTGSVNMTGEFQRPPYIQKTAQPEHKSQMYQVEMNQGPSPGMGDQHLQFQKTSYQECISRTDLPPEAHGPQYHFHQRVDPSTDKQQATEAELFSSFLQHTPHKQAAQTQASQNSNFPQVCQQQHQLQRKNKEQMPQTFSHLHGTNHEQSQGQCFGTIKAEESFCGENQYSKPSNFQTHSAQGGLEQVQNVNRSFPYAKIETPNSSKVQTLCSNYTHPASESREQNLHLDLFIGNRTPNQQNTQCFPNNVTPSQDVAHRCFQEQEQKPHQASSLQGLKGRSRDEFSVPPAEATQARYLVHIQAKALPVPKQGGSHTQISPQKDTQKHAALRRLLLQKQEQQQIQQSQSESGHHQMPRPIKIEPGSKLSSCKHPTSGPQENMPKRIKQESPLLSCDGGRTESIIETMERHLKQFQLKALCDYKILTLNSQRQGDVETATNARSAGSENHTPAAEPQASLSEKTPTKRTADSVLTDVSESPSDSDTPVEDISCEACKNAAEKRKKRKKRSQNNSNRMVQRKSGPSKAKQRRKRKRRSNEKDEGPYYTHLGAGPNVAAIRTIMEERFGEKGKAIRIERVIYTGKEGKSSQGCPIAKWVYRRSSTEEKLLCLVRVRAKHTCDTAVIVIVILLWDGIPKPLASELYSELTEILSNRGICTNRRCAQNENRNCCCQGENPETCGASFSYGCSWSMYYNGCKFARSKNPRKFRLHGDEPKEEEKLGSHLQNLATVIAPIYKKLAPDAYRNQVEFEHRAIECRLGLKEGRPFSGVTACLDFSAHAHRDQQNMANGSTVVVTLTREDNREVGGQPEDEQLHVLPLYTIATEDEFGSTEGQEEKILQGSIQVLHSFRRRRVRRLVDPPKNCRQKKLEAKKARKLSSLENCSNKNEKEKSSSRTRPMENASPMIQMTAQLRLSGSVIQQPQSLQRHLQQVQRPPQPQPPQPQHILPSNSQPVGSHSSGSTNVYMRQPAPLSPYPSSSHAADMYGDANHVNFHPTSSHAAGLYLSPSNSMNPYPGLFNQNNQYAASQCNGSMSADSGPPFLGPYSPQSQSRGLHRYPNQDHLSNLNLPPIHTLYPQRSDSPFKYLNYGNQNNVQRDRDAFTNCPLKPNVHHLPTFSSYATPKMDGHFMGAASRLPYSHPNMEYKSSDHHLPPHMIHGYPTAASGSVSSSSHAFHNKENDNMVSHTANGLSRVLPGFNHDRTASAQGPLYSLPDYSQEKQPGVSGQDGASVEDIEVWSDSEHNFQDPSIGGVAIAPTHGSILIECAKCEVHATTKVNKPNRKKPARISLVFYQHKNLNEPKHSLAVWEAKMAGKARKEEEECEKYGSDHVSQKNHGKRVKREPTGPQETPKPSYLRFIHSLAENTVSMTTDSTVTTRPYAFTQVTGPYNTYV
Method: Epigenase 5mC-Hydroxylase TET Activity/Inhibition Assay Kit was employed to analyse Tet2 activity in nuclear extracts isolated from NRVCMs after 2-HG treatment. Cell fractionation was performed according to standard REAP protocol (Suzuki et al. 2010). The measurement of hydroxymethylcytosine (hmC) amount was performed according to manufacturer's instructions. 50 μg of nuclear protein was used per sample.

NRVCMs [1] = assay: Mitochondrial membrane potential (JC-1) in NRVCMs; assay type: cell-based, rat; conditions: 2HG treatment
Method: In additional experiments, […] were transduced with AAV6 vectors, either overexpressing L2HGDH or luciferase (Luc) as control at the M01=10^5 vp/cell. Three days after transduction L-2HG (Sigma-Aldrich) was applied to cell culture medium to a final concentration of 2 mM. Cells were harvested 2 days after treatment. Similarly, JC-1 was applied to cell culture medium to a concentration of 1 μmol/L and cells were incubated at 37° C. for 30 min. After washing with warm PBS, cells were imaged in FluoroBrite DMEM (J-monomers Ex:485; Em:535/J-aggregates Ex: 530; Em:590) using a confocal microscope (LSM800, Zeiss). Mean fluorescence intensity was analysed using ImageJ.

NRVCMs [2] = assay: Pro-hypertrophic effects of 2-HG on NRVCMs (cell size, ANP and BNP mRNA); assay type: cell-based, rat; conditions: 2 days
Method: (§1) RNA was extracted and purified from frozen mouse heart using Trizol reagent (QIAzol lysis reagent, Qiagen) following manufacturer's instructions, followed by DnaseI digestion. Nucleic acid yields were analyzed photometrically (NanoDrop ND-1000, Spectrophotometer). 1.5 μg RNA was reverse transcribed into cDNA using Superscript III Kit (Invitrogen) and oligo(dT) Primers. cDNA synthesis was followed by RNA digestion using RNase H. qRT-PCR was executed using iTaq Universal SYBR Green Supermix (Thermo Fisher Scientific) and CFX96 Touch Real-Time PCR detection system (Bio Rad) as previously described (Doehner 2014). The following primers used for cDNA relative quantification are listed below.
NRVCMs were isolated and prepared as published previously (Rangrez et al. 2013). […]
Cardiomyocytes were fixed with 4% PFA and blocked in 2.5% BSA in PBS including 0.1% Triton. […] Florescence graphs were collected with Keyence fluorescence microscope BZ-9000 at ×10 magnification (objective: CFI Plan Apochromat λ×10; Nikon) and BZ-II viewer software (Keyence, version 2.1). […] HybridCellCount module and fluorescence intensity singe-extraction mode were applied for cell size measurement.

[3] = test system: primary rat neonatal fibroblasts; assay: L-2HG on fibroblast proliferation and collagen synthesis; assay type: cell-based; conditions: disodium salt; for collagen3a1 expression: Western blot, non-treated fibroblasts as control; for fibroblast proliferation, Ki67-positive nuclei: immunocytochemistry
NRVCMs [4] = assay: 2HG induced cardiomyocyte hypertrophy in NRVCMs with AAV6 transduction; assay type: cell-based, rat; conditions: L-2HG 2 mM, 2 days
Method: as §1
In additional experiments, NRVCMs were transduced with AAV6 vectors, either overexpressing L2HGDH or luciferase (Luc) as control at the M01=10^5 vp/cell. Three days after transduction L-2HG (Sigma-Aldrich) was applied to cell culture medium to a final concentration of 2 mM. Cells were harvested 2 days after treatment.
Cardiomyocytes were fixed with 4% PFA and blocked in 2.5% BSA in PBS including 0.1% Triton. Next NRVCMs were incubated with monoclonal mouse anti-α-actinin (1:200 in 2.5% BSA in PBS; Sigma) antibody for 1 hour at room temperature. After washing with PBS, secondary antibody conjugated to Alexa Fluor-546 (Thermo Fisher Scientific) together with nuclear stain DAPI (Sigma-Aldrich) at a dilution of 1:200 or 1:1000 respectively in 2.5% BSA in PBS were applied and incubated for 1 h. Afterwards, coverslips were mounted using FluorPreserve reagent (Merck Millipore). Florescence graphs were collected with Keyence fluorescence microscope BZ-9000 at ×10 magnification (objective: CFI Plan Apochromat λ×10; Nikon) and BZ-II viewer software (Keyence, version 2.1). 10 pictures were taken from each coverslip. BZ-II Analyzer (version 2.1) were used to process and analyze the graphs. HybridCellCount module and fluorescence intensity singe-extraction mode were applied for cell size measurement.

NRVCMs [5] = assay: Mitochondrial membrane potential (TMRE) in NRVCMs; assay type: cell-based, rat; conditions: L-2HG treatment, live cell monitoring
Method: In additional experiments, […] were transduced with AAV6 vectors, either overexpressing L2HGDH or luciferase (Luc) as control at the M01=10^5 vp/cell. Three days after transduction L-2HG (Sigma-Aldrich) was applied to cell culture medium to a final concentration of 2 mM. Cells were harvested 2 days after treatment. […] were maintained in μ-Slide 8-wells, (Ibidi), suitable for live cell imaging. Cells were incubated with tetramethylrhodamine (TMRE) at 37° C. to a concentration of 50 nmol/L for 30 min. Afterwards, cells were washed with warm PBS and media was replaced with FluoroBrite DMEM (Thermo Fischer Scientific). Cells were imaged within 30 min (Ex: 549; Em: 574 nm).

L2HGDH = assay: Gene expression analysis of L2HGDH in Ang-II infusion mice model; assay type: in vivo; conditions: Ang-II infusion mice vs controls
Method: as §1

[6] = test system: primary neonatal rat ventricular cardiomyocytes (NRVCMs); assay: Measurement of mitochondrial ROS production with MitoSOX in NRVCM; assay type: cell-based; conditions: ET-1 stimulation 200 μmol/l for 24 hours, compared to control
Method: NRVCMs were isolated and prepared as published previously (Rangrez et al. 2013). Briefly, left ventricles from 1-2 days old Wistar rats (Charles River) were harvested and cut in pH 7.4 buffer containing 120 mmol/liter NaCl, 20 mmol/liter Hepes, 8 mmol/liter NaH2PO4, 6 mmol/liter glucose, 5 mmol/liter KCl, and 0.8 mmol/liter MgSO4. The separation of single cardiomyocyte from cut tissue mass, was achieved by enzymatic digestion with 0.6 mg/ml pancreatin (Sigma) at 37° C. and 0.5 mg/ml collagenase type 11 (Worthington). Cell suspension was filtered by a cell strainer. Newborn calf serum was added to stop enzymatic digestion. In order to separate cardiomyocytes from fibroblasts, a Percoll gradient (GE Healthcare) centrifugation step was performed. Afterwards, cardiomyocytes were cultured in DMEM medium containing 10% fetal calf serum (FCS), 2 mM penicillin/streptomycin, and L-glutamine (PAA Laboratories). […]
MitoSOX was applied to culture medium to a final concentration of 0.5 μM and cells were incubated for 15 minutes at 37° C. […] The fluorescence (red) was detected (Ex: 400 nm, Em at 590 nm) using confocal microscopy (Zeiss LSM 800). Mean fluorescence intensity (MFI) was calculated from the total fluorescence intensity detected from viable cells and divided by the number of cells using the software generated by Image J software (NIH, Bethesda, Md., USA).

O=C([O-])CC[C@H](O)C(=O)[O-].[Na+].[Na+] [2-HG, L-α-Hydroxyglutaric acid disodium salt]
epigenetic 5-hmC deposition (Tet2): increased | JC-1 green/red mean fluorescence intensity (mitochondrial polarization) (NRVCMs [1]): mitochondrial depolarization | cell size (NRVCMs [2]; 2-HG 2 mM in serum-free medium, vs non-treated cells): dramatic increase | fetal gene program, ANP and BNP mRNA (NRVCMs [2]; 2-HG 2 mM): marked increase | collagen3a1 expression [3]: induces | collagen3a1 expression ([3]; listed as L-2HG): significant increased | fibroblast proliferation, Ki67-positive nuclei [3]: induces | fibroblast proliferation, Ki67-positive nuclei ([3]; listed as L-2HG): dramatic increased | cell size (NRVCMs [4]): increased | mRNA levels of pro-hypertrophic markers (NRVCMs [4]): increased | induction of hypertrophy in NRVCMs (NRVCMs [4]; disodium salt): marked induction; also recorded: pro-hypertrophic | TMRE fluorescence (mitochondrial membrane potential) (NRVCMs [5]): time-dependent decrease

Ang-II: infused to give the Ang-II infusion mice model of cardiac hypertrophy (DRVYIHPF; Angiotensin-2; UniProt P01019 25-32, looked up)
down-regulation in L2HGDH mRNA level (L2HGDH): 35%

ET-1: hypertrophic stimulation applied to NRVCMs in serum-free medium (CSCSSLMDKECVYFCHLDIIW; disulfide 1-15, 3-11; ends not checked; UniProt P05305 53-73, looked up)
MitoSOX fluorescence level (ROS production) [6]: significant increase
